Measured values: patent US20250122242A1, “SELECTION SYSTEMS, PEPTIDES DETERMINED THEREWITH, AND METHODS OF USING SAME” (Wisconsin Alumni Research Foundation, priority 2023, published 2025)

What was measured:
[1] = target: hIAPP-T7n (UniProt P00573+P10997); conditions: positive selection on hIAPP, high-throughput sequencing; for Rank (positive selection): top enriched sequences
Text: Next, we examined if our system could discover inhibitors of other disease-associated APPs. We targeted human islet amyloid polypeptide (hIAPP), which forms amyloid deposits in patients with type-2 diabetes that are hypothesized to contribute to […] dysfunction.^40 To create a selection for hIAPP aggregation inhibitors, we simply cloned hIAPP in place of Aβ42 in our selection circuit (FIG. 2B). We used an SP-encoded CZ6 SICLOPPS library (Z=NDT codon encoded amino acid: R, N, D, C, G, H, I, L, F, S, Y, or V) (˜3×10^6 total sequences). This codon set was chosen to reduce the theoretical library size and facilitate library cloning. The library (total of ˜5×10^6 transformants) was cloned on a SP obtained from an additional 250 hours of PACE using a more stringent selection (FIGS. 10A-10D).
We performed five rounds of selection, diluting the SP pool by ten-fold each round (FIG. 4A). […] To verify that we selected phage with higher activity, we measured the propagation of the SP from each round on hIAPP selection cells, normalizing input phage titers to […] to enable head-to-head comparison between phage pools.
(§1) Single colonies of host cells transformed with the appropriate selection plasmids were used to make overnight cultures in 2×YT with maintenance antibiotics. The overnight culture was diluted (1:100) into 4-5 mL DRM with maintenance antibiotics and incubated at 37° C. with shaking until the OD600 of the culture reached ˜0.5, upon which the expanded phage library was added at a titer of 1×10^6 pfu/mL. The culture was incubated at 37° C. with shaking overnight (13-18 h). The next day, the culture was centrifuged at 8,000 rcf for 2 min to obtain the supernatant containing phage. The collected phage was diluted into fresh host cell cultures (10 to 1,000-fold) for the next round of selection, while the rest was stored at 4° C. for downstream analysis. This process was repeated until a significant increase in phage propagation was observed compared with the parent library. Both positive and negative selection rounds were performed using this procedure.
(§2) Sample preparation. Phage stocks collected from the final rounds of library selection were first amplified using LY0145 and LY0146. The PCR product was purified, and adapters added using LY0147 and LY0148. The resulting PCR product was purified and barcoded through a final PCR using index primers to add unique indices for shared Illumina NovaSeq sequencing. The final PCR product was purified, and the concentration measured by Nanodrop. Further sample quality control was performed by the University of Wisconsin-Madison Biotechnology Center (UWBC).
(§3) High-throughput sequencing and data analysis. High-throughput sequencing was performed by UWBC using a shared sequencing service on the NovaSeq 6000 platform. Sequencing reads were demultiplexed by UWBC and analyzed using custom-written Python scripts.

[2] = target: T1, Aβ42-T7n (UniProt P00573+P05067); conditions: for Fold enrichment in negative vs. positive selection: percent reads negative vs. positive selection; for Percent total reads (negative selection) / Rank (negative selection): subsequent negative selection against Aβ42, high-throughput sequencing
Text: To create a negative selection, we placed gIII-neg, a dominant-negative form of gIII,^44 under PT7 in our selection circuit. Inhibition of a non-target APP (ex. Aβ42) triggers pIII-neg expression and poisons phage proliferation. A second plasmid produces small amounts of pIII from the phage shock promoter (FIG. 16A). All SPs infecting cells encoding this negative selection receive sufficient pIII to propagate. However, SP that carry a promiscuous or false positive cyclic peptide will also produce pIII-neg and generate non-infectious progeny (FIGS. 16B and 16C). We subjected the hIAPP round 5 phage population to four rounds of negative selection, diluting the phage by 100-fold each round (FIG. 5B).
as §1, §2, §3

[3] = target: T1, Aβ42-T7n
Text: Therefore, we turned to a split-T7 RNA polymerase (T7 RNAP) reporter used to evolve proteins with improved soluble expression.^33 In our new selection, host E. coli express an aggregation-prone protein (APP) fused to the N-terminal half of split-T7 RNAP (T7n). When the APP-T7n fusion is translated, it misfolds due to the APP, preventing T7n from associating with the C-terminal half of split-T7 RNAP (T7c; FIG. 2A). If a SP-encoded inhibitor binds to and prevents APP aggregation, the fused T7n will remain folded and join with T7c to produce full-length T7 RNAP. The reconstituted T7 RNAP then transcribes gIII, which we place under control of the T7 promoter (PT7), producing pill and allowing the SP to reproduce (FIGS. 2A and 2B).
We used the SICLOPPS method to biosynthesize cyclic peptides that can be selected in E. coli.^15 In SICLOPPS, a precursor fusion consisting of the C-terminal half of the Ssp DnaE split intein, the peptide sequence to be cyclized, and the N-terminal half of the same split intein undergoes intein splicing after translation to produce head-to-tail cyclized peptides (FIG. 7).
Strain S206035 was used for plasmid cloning, amplification, and phage assays. Strain S220835 was used for SP cloning and plaque assays. Plasmids and SPs were cloned by USER assembly or blunt-end ligation. Competent cells were prepared and transformed using the TSS method. Phage propagation and plaque assays were performed as previously described.^54 Unless otherwise noted, phage propagation assays used an input of […] phage to infect a 2 mL culture of host cells.

[4] = test system: Aβ42-GFP; assay: Aβ42-GFP folding reporter fluorescence assay; format: cell-based, E. coli; conditions: expressed from plasmid, 0.04 mM IPTG, compared with CKVWQLL (FIG. 3H)
Procedure: Single colonies of S2060s transformed with pBL066c and SICLOPPS plasmid were used to make overnight cultures in 2×YT with maintenance antibiotics. The overnight culture was diluted (1:100) into 1 mL DRM on a 96 deep-well plate (VWR, 75870-796) with maintenance antibiotics and IPTG (0, 0.04, 0.2, or 1 mM). The diluted culture was incubated at 37° C. with shaking for 2.5 h, after which aTc (200 ng/mL) was added. 100 μL of the culture was transferred onto a black clear-bottom 96-well plate (VWR, 89131-680) to measure fluorescence signal 2, 3, 5 h after addition of aTc. GFP fluorescence signal (excitation wavelength=485 nm, emission wavelength=535 nm) was then measured using a Tecan M Plex microplate reader.

[5] = target: T1, Aβ42-T7n; conditions: cyclo-CX6 library, seven rounds on Aβ42-T7n, deep sequencing
Procedure: as §1
Sample preparation. Phage stocks collected from the final rounds of library selection were first amplified using LY0145 and LY0146. The PCR product was purified, and adapters added using LY0147 and LY0148. […] The final PCR product was purified, and the concentration measured by Nanodrop. […]
High-throughput sequencing and data analysis. […] Sequencing reads were demultiplexed by UWBC and analyzed using custom-written Python scripts.

[6] = target: T2, hIAPP (Homo sapiens, UniProt P10997); assay: ThT fluorescence assay of in vitro hIAPP aggregation; format: biochemical; conditions: chemically synthesized peptide, 10 μM hIAPP, PBS pH 6.9, 32° C., quiescent
T2 construct: A 1 mg portion of amylin trifluoroacetate salt (Bachem) was purchased as lyophilized solid in a vial; purchased Bachem
T2 sequence (P10997 34-70 limits assumed): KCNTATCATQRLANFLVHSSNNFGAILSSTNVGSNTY
Procedure: Preparation of ThT stock solution. To prepare a stock solution of ThT (2-3 mM), 2-4 mg of ThT was added to 3 mL PBS (pH 6.9) in a 15 mL conical tube. The solution was sonicated for 5 min and the supernatant was filtered through a 0.22 μm syringe filter into a 1.5 mL Eppendorf tube. This was the ThT stock solution to be used in following experiments. 2 mL of a 1:200 diluted ThT solution was prepared by adding 10 μL ThT stock solution into 1990 μL PBS. The absorbance of the diluted ThT solution measured at 412 nm was used to calculate the ThT stock concentration using an extinction coefficient (c) of 31600 M^−1 cm^−1.
Preparation of hIAPP stocks. A 1 mg portion of amylin trifluoroacetate salt (Bachem) was purchased as lyophilized solid in a vial. The solid was dissolved in pre-chilled 2562 μL 35 mM sodium acetate (pH 5.3) to a stock concentration of 100 μM on ice. Aliquots of hIAPP were prepared by transferring 200 μL of the 100 μM hIAPP stock solution to low-protein-binding Eppendorf tubes on ice. The aliquots were then immediately snap frozen using liquid N2, lyophilized for 24 h, and stored at −80° C. until use.
Preparation of samples for ThT assays. Using cyclic peptide stock solution (100 μM) and PBS, 400 μL aqueous solution of cyclic peptide was prepared in a low-protein-binding Eppendorf tube to achieve the desired cyclic peptide:hIAPP molar ratio (80 μM for 4:1, 40 μM for 2:1, 20 μM for 1:1, 10 μM for 0.5:1, 0 μM for 0:1). 30 μL of the solution was then loaded to wells on a black clear-bottom low-binding 96-well plate (Corning 3881) to make a triplicate for each condition. This plate loaded with aqueous solutions of cyclic peptides was then ready for adding hIAPP.
Preparation and addition of hIAPP for ThT assays. Using ThT stock solution and PBS, 1 mL ThT solution (10 μM) was prepared in a low-protein-binding Eppendorf tube and chilled on ice. 0.5 mL of the pre-chilled ThT solution was added to one aliquot of lyophilized hIAPP, which was equilibrated to room temperature before opening the tube. Pipetting up and down four times was performed to facilitate complete dissolving of hIAPP. The 0.5 mL hIAPP-containing solution was immediately transferred to the remaining 0.5 mL ThT solution on ice. Pipetting up and down four times was performed to facilitate complete mixing. The resulting 1 mL hIAPP solution, where [hIAPP]=20 μM, was immediately transferred to a 25 mL liquid reservoir. Using a multi-channel pipette, 30 μL of the hIAPP solution was quickly loaded into wells containing aqueous solutions of cyclic peptides on the 96-well plate. Final [hIAPP]=10 μM, [ThT]=5 μM.
ThT assay conditions. The plate was then quickly covered and incubated in a Tecan M Plex microplate reader under quiescent condition at 32° C. for at least 12 h. ThT fluorescence at 480 nm was measured every 5 min through the bottom of the plate using an excitation wavelength of 440 nm.
Fitting of aggregation kinetics. ThT aggregation kinetics data was fit to a sigmoidal function using GraphPad Prism and the aggregation lag time (tlag) and the apparent fibril elongation rate (kapp) calculated as described.^55

Sequence of hIAPP-T7n (P10997+P00573 fused): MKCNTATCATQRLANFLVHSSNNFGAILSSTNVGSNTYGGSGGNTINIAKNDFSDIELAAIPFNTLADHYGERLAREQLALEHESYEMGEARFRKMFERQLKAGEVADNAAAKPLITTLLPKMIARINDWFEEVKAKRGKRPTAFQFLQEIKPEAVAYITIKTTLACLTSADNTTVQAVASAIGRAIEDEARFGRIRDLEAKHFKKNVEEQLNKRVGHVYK
T1 sequence (P05067+P00573 fused): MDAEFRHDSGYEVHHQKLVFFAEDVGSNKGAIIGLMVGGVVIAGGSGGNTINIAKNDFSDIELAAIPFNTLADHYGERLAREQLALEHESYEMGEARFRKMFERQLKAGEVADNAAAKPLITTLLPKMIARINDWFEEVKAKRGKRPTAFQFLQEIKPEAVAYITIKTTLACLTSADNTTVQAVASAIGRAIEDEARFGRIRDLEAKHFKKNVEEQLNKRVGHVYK
Sequence of Aβ42-GFP (P05067 672-713): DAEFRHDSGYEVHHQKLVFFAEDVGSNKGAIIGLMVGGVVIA

Substance: CCGLYNI
- Percent total reads (positive selection) [1]: 0.31%
- Rank (positive selection) [1]: 5
- Fold enrichment in negative vs. positive selection [2]: 0.48
- Percent total reads (negative selection) [2]: 0.15%
- Rank (negative selection) [2]: 31

Substance: CCHSFFR
- Percent total reads (positive selection) [1]: 0.29%
- Rank (positive selection) [1]: 6
- Fold enrichment in negative vs. positive selection [2]: 2.87
- Percent total reads (negative selection) [2]: 0.83%
- Rank (negative selection) [2]: 12

Substance: CFFRGSD
- Percent total reads (positive selection) [1]: 0.06%
- Rank (positive selection) [1]: 18
- Fold enrichment in negative vs. positive selection [2]: 81.53
- Percent total reads (negative selection) [2]: 4.73%
- Rank (negative selection) [2]: 6

Substance: CFNLVVD
- Percent total reads (positive selection) [1]: 0.08%
- Rank (positive selection) [1]: 15
- Fold enrichment in negative vs. positive selection [2]: 64.65
- Percent total reads (negative selection) [2]: 4.85%
- Rank (negative selection) [2]: 5

Substance: CGIRSLG
- Percent total reads (positive selection) [1]: 0.22%
- Rank (positive selection) [1]: 7
- Fold enrichment in negative vs. positive selection [2]: 20.09
- Percent total reads (negative selection) [2]: 4.48%
- Rank (negative selection) [2]: 7

Substance: CGLGHGN
- Percent total reads (positive selection) [1]: 0.009%
- Rank (positive selection) [1]: 53
- Fold enrichment in negative vs. positive selection [2]: 124.22
- Percent total reads (negative selection) [2]: 1.12%
- Rank (negative selection) [2]: 10

Substance: CHVHSYL
- Percent total reads (positive selection) [1]: 1.82%
- Rank (positive selection) [1]: 2
- Fold enrichment in negative vs. positive selection [2]: 3.31
- Percent total reads (negative selection) [2]: 6.03%
- Rank (negative selection) [2]: 4

Substance: CISCHYG
- Percent total reads (positive selection) [1]: 0.13%
- Rank (positive selection) [1]: 8
- Fold enrichment in negative vs. positive selection [2]: 0.92
- Percent total reads (negative selection) [2]: 0.12%
- Rank (negative selection) [2]: 34

Substance: CIYFHHH
- Percent total reads (positive selection) [1]: 0.12%
- Rank (positive selection) [1]: 9
- Fold enrichment in negative vs. positive selection [2]: 28.44
- Percent total reads (negative selection) [2]: 3.33%
- Rank (negative selection) [2]: 8

Substance: CLNYFHG
- Percent total reads (positive selection) [1]: 0.35%
- Rank (positive selection) [1]: 3
- Fold enrichment in negative vs. positive selection [2]: 20.08
- Percent total reads (negative selection) [2]: 7.05%
- Rank (negative selection) [2]: 3

Substance: CNRLDVS
- Percent total reads (positive selection) [1]: 0.02%
- Rank (positive selection) [1]: 26
- Fold enrichment in negative vs. positive selection [2]: 83.68
- Percent total reads (negative selection) [2]: 1.84%
- Rank (negative selection) [2]: 9

Substance: CRVWCAR (cyclic; Circular) [cyclo-CRVWCAR]
- phage propagation activity (fitness) on Aβ42-T7n selection ([3]; clonal SP encoding the sequence): robust propagation
- activity in Aβ42-GFP folding reporter assay [4]: comparable activity to CKVWQLL
- share of total sequencing reads in final SP pool [5]: ~65%

Substance: CVSYILL
- Percent total reads (positive selection) [1]: 0.11%
- Rank (positive selection) [1]: 10
- Fold enrichment in negative vs. positive selection [2]: 4.21
- Percent total reads (negative selection) [2]: 0.45%
- Rank (negative selection) [2]: 16

Substance: CYILSIG
- Percent total reads (positive selection) [1]: 0.34%
- Rank (positive selection) [1]: 4
- Fold enrichment in negative vs. positive selection [2]: 1.10
- Percent total reads (negative selection) [2]: 0.37%
- Rank (negative selection) [2]: 18

Substance: cyclo-CKVWQLL [CKVWQLL SP, reference compound]
- discrimination between active SP and scrambled control (phage propagation) ([3]; evolved SP (PACE 1 clone 2) (FIG. 2D)): ~300 fold
- increase in phage proliferation compared to SP carrying scrambled control ([3]; parent SP, vs CVQWLKL SP (FIG. 8A)): ~500 fold

Substance: linear CDLGVFR
- inhibition of hIAPP aggregation (ThT fluorescence) [6]: completely inactive

Substance: linear CHVVGVI [linear CHWGVI]
- inhibition of hIAPP aggregation (ThT fluorescence) [6]: greatly reduced ability to inhibit hIAPP

Substance: linear CRCVFSG [linear CRCVSFG]
- inhibition of hIAPP aggregation (ThT fluorescence) [6]: moderately inhibited hNAPP aggregation
